According to ChEMBL document CHEMBL1201862, “PubChem BioAssay data set” (2004):
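Exposure lasted 48 hours, with cells grown in 96-well plates and compounds tested at five concentrations. GI50 marks 50% less growth.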 Calls of active or inactive are those of the source. Cut-off read from the data, not from the text of the source: active = GI50 up to about 1.1 µM and inactive = higher.

Columns and labels:
Assay in all cases: NCI anticancer screen, dose series, 48 h
[1] = tested on: HOP-92
[2] = tested on: MOLT-4
[3] = tested on: XF498
[4] = tested on: COLO 205
[5] = tested on: OVCAR-4
[6] = tested on: UO-31
[7] = tested on: NCI-H23
[8] = tested on: NCI-H226
[9] = tested on: SF-539
[10] = tested on: KM12
[11] = tested on: 786-0
[12] = tested on: M19-MEL
[13] = tested on: Malme-3M
[14] = tested on: M14
[15] = tested on: HOP-18
[16] = tested on: TK-10
[17] = tested on: EKVX
[18] = tested on: U-251
[19] = tested on: SK-MEL-2
[20] = tested on: SNB-75
[21] = tested on: ACHN
[22] = tested on: SK-OV-3
[23] = tested on: SN12C
[24] = tested on: UACC-257
[25] = tested on: SNB-19
[26] = tested on: HCT-116
[27] = tested on: K562
[28] = tested on: DMS-114
[29] = tested on: LXFL 529
[30] = tested on: NCI-H522
[31] = tested on: HL-60
[32] = tested on: SNB-78
[33] = tested on: DLD-1
[34] = tested on: SK-MEL-28
[35] = tested on: CCRF-CEM
[36] = tested on: SF-268
[37] = tested on: OVCAR-8
[38] = tested on: DMS-273
[39] = tested on: SK-MEL-5
[40] = tested on: HT-29
[41] = tested on: NCI-H460
[42] = tested on: RPMI-8226
[43] = tested on: IGROV-1
[44] = tested on: SF-295
[45] = tested on: OVCAR-3
[46] = tested on: A549
[47] = tested on: HCC 2998
[48] = tested on: HCT-15
[49] = tested on: OVCAR-5
[50] = tested on: SW-620
[51] = tested on: KM-20L2
[52] = tested on: A498
[53] = tested on: HOP-62
[54] = tested on: RXF 393
[55] = tested on: LOX IMVI

Cc1ccc(S(=O)(=O)c2c(N)n(CCN(C)C)c3nc4ccccc4nc23)cc1
GI50 [1]: > 100 µM (inactive) | GI50 [2]: > 100 µM (inactive) | GI50 [3]: > 100 µM (inactive) | GI50 [4]: > 100 µM (inactive) | GI50 [5]: > 100 µM (inactive) | GI50 [6]: > 100 µM (inactive) | GI50 [7]: > 100 µM (inactive) | GI50 [8]: > 100 µM (inactive) | GI50 [9]: > 100 µM (inactive) | GI50 [10]: 45.1 µM (inactive) | GI50 [11]: > 100 µM (inactive) | GI50 [12]: > 100 µM (inactive) | GI50 [13]: > 100 µM (inactive) | GI50 [14]: > 100 µM (inactive) | GI50 [15]: > 100 µM (inactive) | GI50 [16]: 99.8 µM (inactive) | GI50 [17]: > 100 µM (inactive) | GI50 [18]: > 100 µM (inactive) | GI50 [19]: > 100 µM (inactive) | GI50 [20]: > 100 µM (inactive) | GI50 [21]: > 100 µM (inactive) | GI50 [22]: > 100 µM (inactive) | GI50 [23]: > 100 µM (inactive) | GI50 [24]: 71.9 µM (inactive) | GI50 [25]: > 100 µM (inactive) | GI50 [26]: > 100 µM (inactive) | GI50 [27]: > 100 µM (inactive) | GI50 [28]: > 100 µM (inactive) | GI50 [29]: > 100 µM (inactive) | GI50 [30]: 3.13 µM (inactive) | GI50 [31]: > 100 µM (inactive) | GI50 [32]: > 100 µM (inactive) | GI50 [33]: > 100 µM (inactive) | GI50 [34]: > 100 µM (inactive) | GI50 [35]: 96.6 µM (inactive) | GI50 [36]: > 100 µM (inactive) | GI50 [37]: > 100 µM (inactive) | GI50 [38]: > 100 µM (inactive) | GI50 [39]: > 100 µM (inactive) | GI50 [40]: > 100 µM (inactive) | GI50 [41]: > 100 µM (inactive) | GI50 [42]: > 100 µM (inactive) | GI50 [43]: > 100 µM (inactive) | GI50 [44]: > 100 µM (inactive) | GI50 [45]: > 100 µM (inactive) | GI50 [46]: > 100 µM (inactive) | GI50 [47]: > 100 µM (inactive) | GI50 [48]: > 100 µM | GI50 [49]: > 100 µM (inactive)

COc1ccc2c3c1O[C@]1(C)C34CCN(C)C(C2)C42C=C[C@@]1(OC)c1c(O)ccc(O)c12
GI50 [1]: 59.3 µM (inactive) | GI50 [2]: > 100 µM (inactive) | GI50 [3]: > 100 µM (inactive) | GI50 [4]: > 100 µM (inactive) | GI50 [6]: > 100 µM (inactive) | GI50 [7]: > 100 µM (inactive) | GI50 [9]: > 100 µM (inactive) | GI50 [10]: > 100 µM (inactive) | GI50 [11]: 95.7 µM (inactive) | GI50 [13]: 64.7 µM (inactive) | GI50 [15]: > 100 µM (inactive) | GI50 [16]: > 100 µM (inactive) | GI50 [17]: > 100 µM (inactive) | GI50 [50]: > 100 µM (inactive) | GI50 [18]: > 100 µM (inactive) | GI50 [19]: > 100 µM (inactive) | GI50 [20]: > 100 µM (inactive) | GI50 [21]: > 100 µM (inactive) | GI50 [22]: > 100 µM (inactive) | GI50 [24]: > 100 µM (inactive) | GI50 [51]: > 100 µM (inactive) | GI50 [25]: > 100 µM (inactive) | GI50 [26]: > 100 µM (inactive) | GI50 [27]: > 100 µM (inactive) | GI50 [28]: > 100 µM (inactive) | GI50 [29]: > 100 µM (inactive) | GI50 [30]: > 100 µM (inactive) | GI50 [31]: 17.8 µM (inactive) | GI50 [32]: 61.8 µM (inactive) | GI50 [33]: > 100 µM (inactive) | GI50 [34]: > 100 µM (inactive) | GI50 [35]: > 100 µM (inactive) | GI50 [52]: > 100 µM (inactive) | GI50 [36]: > 100 µM (inactive) | GI50 [37]: > 100 µM (inactive) | GI50 [38]: > 100 µM (inactive) | GI50 [53]: > 100 µM (inactive) | GI50 [39]: > 100 µM (inactive) | GI50 [40]: > 100 µM (inactive) | GI50 [41]: > 100 µM (inactive) | GI50 [54]: > 100 µM (inactive) | GI50 [42]: > 100 µM (inactive) | GI50 [43]: > 100 µM (inactive) | GI50 [44]: > 100 µM (inactive) | GI50 [45]: > 100 µM (inactive) | GI50 [46]: > 100 µM (inactive) | GI50 [47]: > 100 µM (inactive) | GI50 [55]: > 100 µM (inactive) | GI50 [49]: > 100 µM (inactive)
